Test results published in the supplement of paper PMC7840683.

Tested on: HepaRG
Test: LDH release cytotoxicity, % of total lysis control; higher = more cytotoxic
Conditions: 48 h
Procedure, shortened: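 Duplicate wells of single-lot HepaRG cells, grown on collagen I-coated 96-well plates, received eight-point half-log series of test chemicals with 100 µM as the top concentration. Exposure lasted 48 h in serum-free induction medium with 0.5% DMSO, while total lysis wells received 0.1% Triton X. Resorufin fluorescence (CytoTox-ONE, Tecan Safire) was used to quantify LDH leaked into 50 µL of spent medium. Values for percent cytotoxicity were normalized to on-plate vehicle and total lysis controls and averaged across the duplicates.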

CN(C)C(=O)C1(N2CCCCC2)CCN(CCC2(c3ccc(Cl)c(Cl)c3)CN(C(=O)c3ccccc3)CCO2)CC1 (centres undefined)
Conditions	LDH release cytotoxicity [%]
0.02988 µM	-0.742
0.0945 µM	-0.252
0.298835 µM	-0.7
0.945 µM	-0.736
2.98835 µM	-0.21
9.45 µM	0.674
29.8835 µM	69.1
94.5 µM	85.4

OC(c1ccc(Cl)cc1)(c1cncnc1)c1ccccc1Cl (centres undefined) [Fenarimol]
Conditions	LDH release cytotoxicity [%]
0.031623 µM	-1.68
0.1 µM	-0.827
0.316228 µM	-0.805
1 µM	-2.32
3.16228 µM	-0.581
10 µM	0.969
31.6228 µM	2.21
100 µM	15.4

CCCCNC(=O)n1c(NC(=O)OC)nc2ccccc21 [Benomyl]
Conditions	LDH release cytotoxicity [%]
0.03162 µM	-1.36
0.1 µM	-0.152
0.3162278 µM	-0.651
1 µM	-2.31
3.16228 µM	-1.18
10 µM	8.93
31.6228 µM	8.73
100 µM	9.79

CCOC(=O)C(C)Oc1ccc(Oc2cnc3cc(Cl)ccc3n2)cc1 (centres undefined) [Quizalofop-ethyl]
Conditions	LDH release cytotoxicity [%]
0.0272 µM	-0.606
0.086 µM	-0.619
0.271956 µM	-0.991
0.86 µM	-1.42
2.71956 µM	-0.919
8.6 µM	-0.541
27.1956 µM	-0.469
86 µM	-0.0561

N[C@@H](Cc1c[nH]c2ccccc12)C(=O)O [L-Tryptophan]
Conditions	LDH release cytotoxicity [%]
0.03162 µM	-1.94
0.1 µM	-2.65
0.3162278 µM	-1.1
1 µM	-1.86
3.16228 µM	-2.03
10 µM	-1.29
31.6228 µM	-1.37
100 µM	-1.29

CC(Oc1ccc(CNC(=O)c2cccnc2Oc2ccc3c(c2)OCO3)c(F)c1)C(=O)O (centres undefined)
Conditions	LDH release cytotoxicity [%]
0.03162 µM	0.432
0.1 µM	-0.868
0.3162278 µM	-1.04
1 µM	-1.35
3.16228 µM	-1.24
10 µM	-0.8947
31.6228 µM	-0.798
100 µM	-0.624

COC(=O)c1ccc(O)cc1 [Methylparaben]
Conditions	LDH release cytotoxicity [%]
0.03162 µM	-1.06
0.1 µM	-1.64
0.3162278 µM	-1.84
1 µM	-0.442
3.16228 µM	-0.946
10 µM	-0.563
31.6228 µM	-0.515
100 µM	0.108

CCCCOC(=O)CCCCC(=O)OCCCC [Dibutyl adipate]
Conditions	LDH release cytotoxicity [%]
0.0317809 µM	-0.761
0.1005 µM	-1.45
0.317809 µM	-1.74
1.005 µM	-1.12
3.17809 µM	-1.24
10.05 µM	-0.568
31.7809 µM	0.579
100.5 µM	2.35

CC(=O)C1CCC2C3CCC4=CC(=O)CCC4(C)C3CCC12C (centres undefined) [Progesterone]
Conditions	LDH release cytotoxicity [%]
0.03162 µM	0.112
0.1 µM	-0.0962
0.3162278 µM	-0.597
1 µM	-0.509
3.16228 µM	-1.13
10 µM	-2
31.6228 µM	12.6
100 µM	55.9

C=C(C)C(N)=O [Methacrylamide]
Conditions	LDH release cytotoxicity [%]
0.03162 µM	0.244
0.1 µM	-1.11
0.3162278 µM	-1.39
1 µM	-1.09
3.16228 µM	-1.32
10 µM	-0.285
31.6228 µM	-0.444
100 µM	2.64

Oc1cccc(O)c1 [Resorcinol]
Conditions	LDH release cytotoxicity [%]
0.03162 µM	-0.658
0.1 µM	-1.17
0.3162278 µM	-0.864
1 µM	-1.17
3.16228 µM	-2.41
10 µM	-0.6
31.6228 µM	-0.357
100 µM	2.31

CCCCC(O)(Cn1cncn1)c1ccc(Cl)cc1Cl (centres undefined) [Hexaconazole]
Conditions	LDH release cytotoxicity [%]
0.03162 µM	-0.998
0.1 µM	-0.668
0.3162278 µM	0.00223
1 µM	-0.913
3.16228 µM	-0.0659
10 µM	0.28
31.6228 µM	-0.401
100 µM	10.1

CN(C)CCO [Dimethylaminoethanol]
Conditions	LDH release cytotoxicity [%]
0.03162 µM	0.182
0.1 µM	-0.302
0.3162278 µM	-0.0529
1 µM	-1.37
3.16228 µM	-1.09
10 µM	-1.02
31.6228 µM	-0.601
100 µM	1.07

CCOP(=O)(NC(C)C)Oc1ccc(SC)c(C)c1 (centres undefined) [Fenamiphos]
Conditions	LDH release cytotoxicity [%]
0.03162 µM	-1.16
0.1 µM	-1.81
0.3162278 µM	-1.38
1 µM	-1.28
3.16228 µM	-1.13
10 µM	-1.56
31.6228 µM	-1.03
100 µM	0.0773

Clc1ccc(C(c2ccc(Cl)cc2)C(Cl)Cl)cc1 [p,p'-DDD]
Conditions	LDH release cytotoxicity [%]
0.03162 µM	-1.25
0.1 µM	-1.27
0.3162278 µM	-2.03
1 µM	-1.62
3.16228 µM	-0.977
10 µM	-1.35
31.6228 µM	-1.4
100 µM	0.26

N#CC(Br)(Br)C(N)=O [2,2-Dibromo-3-nitrilopropionamide]
Conditions	LDH release cytotoxicity [%]
0.0314647 µM	-1.52
0.0995 µM	-0.658
0.3146466 µM	-0.437
0.995 µM	-0.589
3.14647 µM	0.314
9.95 µM	0.381
31.4647 µM	-0.137
99.5 µM	1.42

CC(C1CC1)C(O)(Cn1cncn1)c1ccc(Cl)cc1 (centres undefined) [Cyproconazole]
Conditions	LDH release cytotoxicity [%]
0.0314647 µM	-2.83
0.0995 µM	-2.41
0.3146466 µM	-3.23
0.995 µM	-3.32
3.14647 µM	-3.1
9.95 µM	-2.59
31.4647 µM	-2.12
99.5 µM	6.32

c1nc[nH]n1 [1H-1,2,4-Triazole]
Conditions	LDH release cytotoxicity [%]
0.03162 µM	0.679
0.1 µM	0.298
0.3162278 µM	-1.06
1 µM	-0.618
3.16228 µM	0.566
10 µM	0.541
31.6228 µM	1.08
100 µM	2.04

C=C(C)CN(CC)c1c([N+](=O)[O-])cc(C(F)(F)F)cc1[N+](=O)[O-]
Conditions	LDH release cytotoxicity [%]
0.03162 µM	0.288
0.1 µM	-0.786
0.3162278 µM	-0.775
1 µM	-1.3
3.16228 µM	-0.72
10 µM	-0.92
31.6228 µM	-0.439
100 µM	0.333

CCCCc1ccccc1 [Butylbenzene]
Conditions	LDH release cytotoxicity [%]
0.03162 µM	-0.0627
0.1 µM	-0.967
0.3162278 µM	-0.793
1 µM	-0.547
3.16228 µM	-0.941
10 µM	-0.027
31.6228 µM	-0.00747
100 µM	1.27

CCNC(=O)NC(=O)C(C#N)=NOC [Cymoxanil]
Conditions	LDH release cytotoxicity [%]
0.03162 µM	-0.835
0.1 µM	-1.41
0.3162278 µM	-2
1 µM	-1.41
3.16228 µM	-2.17
10 µM	-0.806
31.6228 µM	-0.354
100 µM	1.89

CCC(C)c1ccc(O)cc1 (centres undefined) [4-(Butan-2-yl)phenol]
Conditions	LDH release cytotoxicity [%]
0.03162 µM	-1.68
0.1 µM	-2.9
0.3162278 µM	-2.9
1 µM	-3.15
3.16228 µM	-2.86
10 µM	-2.62
31.6228 µM	-1.77
100 µM	-0.982

NC(N)=O [Urea]
Conditions	LDH release cytotoxicity [%]
0.03162 µM	-1.69
0.1 µM	-0.896
0.3162278 µM	-1.17
1 µM	-1.62
3.16228 µM	-0.792
10 µM	-0.693
31.6228 µM	-1.24
100 µM	1.24

c1ccc2c(c1)ccc1ccccc12 [Phenanthrene]
Conditions	LDH release cytotoxicity [%]
0.03162 µM	-0.492
0.1 µM	-0.112
0.3162278 µM	-1.07
1 µM	-1.03
3.16228 µM	-1.55
10 µM	-0.467
31.6228 µM	-0.00782
100 µM	0.23

CCOC(=O)C(C)(C)Oc1ccc(Cl)cc1 [Clofibrate]
Conditions	LDH release cytotoxicity [%]
0.03162 µM	-0.811
0.1 µM	-0.737
0.3162278 µM	-1.03
1 µM	-0.873
3.16228 µM	-1.56
10 µM	-0.987
31.6228 µM	-0.0208
100 µM	1.51

C#CC1(O)CCC2C3CCc4cc(O)ccc4C3CCC21C (stereo not drawn) [17alpha-Ethinylestradiol]
Conditions	LDH release cytotoxicity [%]
0.03162 µM	-0.935
0.1 µM	-0.618
0.3162278 µM	-0.346
1 µM	-0.588
3.16228 µM	-0.768
10 µM	-0.554
31.6228 µM	0.171
100 µM	1.412

CN1CCN(c2ccccc2C=C2SCCN(c3ccc(Cl)c(Cl)c3)C2=O)CC1 [Elzasonan]
Conditions	LDH release cytotoxicity [%]
0.03162 µM	0.236
0.1 µM	0.483
0.3162278 µM	0.649
1 µM	-0.238
3.16228 µM	-0.446
10 µM	0.355
31.6228 µM	9.77
100 µM	88.8

CCCCOCCOCCO [2-(2-Butoxyethoxy)ethanol]
Conditions	LDH release cytotoxicity [%]
0.03162 µM	-0.987
0.1 µM	-1.94
0.3162278 µM	-1.79
1 µM	-2.09
3.16228 µM	-2.29
10 µM	-1.67
31.6228 µM	-1.25
100 µM	-0.813

CCOP(=S)(OCC)SCCSCC [Disulfoton]
Conditions	LDH release cytotoxicity [%]
0.03162 µM	-1.14
0.1 µM	-1.12
0.3162278 µM	-1.03
1 µM	-1.51
3.16228 µM	-1.34
10 µM	-1.32
31.6228 µM	-1.01
100 µM	-0.345

O=C(Nc1ccc(Cl)cc1)Nc1ccc(Cl)c(Cl)c1 [Triclocarban]
Conditions	LDH release cytotoxicity [%]
0.03162 µM	-2.18
0.1 µM	-1.67
0.3162278 µM	-1.81
1 µM	-1.44
3.16228 µM	-1.83
10 µM	-0.606
31.6228 µM	-1.24
100 µM	0.167

CC12C=CC3=C4CCC(=O)C=C4CCC3C1CCC2O (stereo not drawn) [17beta-Trenbolone]
Conditions	LDH release cytotoxicity [%]
0.03162 µM	-1.81
0.1 µM	-1.96
0.3162278 µM	-2.23
1 µM	-1.89
3.16228 µM	-1.55
10 µM	-1.02
31.6228 µM	-1.05
100 µM	0.211

[OH-].c1cc[c]([Sn+]([c]2ccccc2)[c]2ccccc2)cc1 [Triphenyltin hydroxide]
Conditions	LDH release cytotoxicity [%]
0.03162 µM	-0.226
0.1 µM	-1.04
0.3162278 µM	-0.513
1 µM	46.3
3.16228 µM	68.1
10 µM	57.1
31.6228 µM	63.5
100 µM	64.4

COC(=O)Nc1nc2ccccc2[nH]1 [Carbendazim]
Conditions	LDH release cytotoxicity [%]
0.03162 µM	-1.09
0.1 µM	-0.973
0.3162278 µM	-1.51
1 µM	-1.78
3.16228 µM	-1.63
10 µM	7.25
31.6228 µM	7.37
100 µM	8.69

CC1(C)C(C=C(Cl)Cl)C1C(=O)OC(C#N)c1ccc(F)c(Oc2ccccc2)c1 (centres undefined) [Cyfluthrin]
Conditions	LDH release cytotoxicity [%]
0.031623 µM	0.499
0.1 µM	-1.05
0.316228 µM	-1.18
1 µM	-1.61
3.16228 µM	-1.18
10 µM	-0.972
31.6228 µM	-0.561
100 µM	-0.122

O=[N+]([O-])c1ccc(Cl)c(Cl)c1 [3,4-Dichloronitrobenzene]
Conditions	LDH release cytotoxicity [%]
0.03162 µM	-2.51
0.1 µM	-2.5
0.3162278 µM	-2.72
1 µM	-3.32
3.16228 µM	-2.26
10 µM	-2.3
31.6228 µM	-1.86
100 µM	-0.0607

CCC(=C(c1ccccc1)c1ccc(OCCN(C)C)cc1)c1ccccc1 [Tamoxifen]
Conditions	LDH release cytotoxicity [%]
0.03162 µM	-1.09
0.1 µM	-0.968
0.3162278 µM	-1.82
1 µM	-2.26
3.16228 µM	-0.69
10 µM	-0.919
31.6228 µM	4.6
100 µM	79.7

CSC(C)(C)CN=O [Aldicarb oxime]
Conditions	LDH release cytotoxicity [%]
0.03162 µM	-1.16
0.1 µM	-1.16
0.3162278 µM	-0.361
1 µM	0.251
3.16228 µM	-0.674
10 µM	0.43
31.6228 µM	0.225
100 µM	0.822

CC(=O)C(C)=CC1C(C)=CCCC1(C)C (stereo not drawn) [alpha-Isomethylionone]
Conditions	LDH release cytotoxicity [%]
0.03162 µM	-0.906
0.1 µM	-1.92
0.3162278 µM	-1.73
1 µM	-1.69
3.16228 µM	-1.11
10 µM	-1.8
31.6228 µM	-0.46
100 µM	0.422
